# Data taken from paper PMC9895995, “Laccase Immobilization on Copper-Magnetic Nanoparticles for Efficient Bisphenol Degradation” (Journal of Microbiology and Biotechnology, 2022).
# Tested on: T1, Rhus vernicifera laccase (free laccase)
# T1 construct: gene urishiol oxidase
# Settings: free enzyme; 100 mM sodium citrate buffer, optimum pH (3.5), 25°C; ABTS 0.05-20.0 mM
structure (smiles),measurement,value
"CCn1c(=NN=c2sc3cc(S(=O)(=O)O)ccc3n2CC)sc2cc(S(=O)(=O)O)ccc21 [ABTS, 2,2'-azino-bis (3-ethylbenzothiazoline-6-sulfonic acid)]",Km,1720 ± 380 µM
